Here are results for four compounds from patent US10889611B2, “Sialyltransferase inhibitors and uses thereof” (Academia Sinica, priority 2015, dated 2021).

“And” between values parts separate entries of the source, which are not always exact repeats. Identical values can stand only once. Like-named read-outs stand apart in the source and are kept apart here. Marks after values point to notes of the source that are not given here. Some results are limits rather than exact numbers.

The inhibition is how much of the control response was suppressed. The term melting point denotes the temperature, or range, at which the solid turns liquid.

For series [1], the target named is T1, α2,3(N)-sialyltransferase ST3GALIII (Rattus norvegicus, UniProt Q02734).
T1 construct: purchased Calbiochem
T1 sequence (Q02734 1-374): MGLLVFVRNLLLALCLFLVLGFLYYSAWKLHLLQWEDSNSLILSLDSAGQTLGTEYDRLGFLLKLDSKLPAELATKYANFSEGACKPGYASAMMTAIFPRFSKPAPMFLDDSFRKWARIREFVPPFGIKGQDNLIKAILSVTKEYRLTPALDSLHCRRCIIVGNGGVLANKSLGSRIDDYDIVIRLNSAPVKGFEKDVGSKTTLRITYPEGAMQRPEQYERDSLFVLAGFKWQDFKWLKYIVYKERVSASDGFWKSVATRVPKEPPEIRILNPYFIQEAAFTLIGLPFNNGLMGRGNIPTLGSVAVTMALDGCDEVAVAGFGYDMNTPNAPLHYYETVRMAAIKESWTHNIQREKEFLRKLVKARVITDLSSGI
Put plainly: Sialyltransferase activity assay, ST3GALIII. The class given is biochemical. As to the method:
(§1) The enzymes analyzed in the present study included rat ST3Gal(I), rat ST3Gal(III), and human ST6Gal(I). Rat ST3Gal(I) and rat ST3Gal(Ill), were purchased from Calbiochem®, while human ST6Gal(I) was purchased from RnDSystems.com.
(§2) Sialyltransferase inhibition assay […] was performed as follows: Sialyltransferase activity was determined by measuring the level of the end product of sialylated saccharides with reverse-phase HPLC. The assay mixtures contained the following components: 200 mM MES buffer; 100 mM NaCl; 0.5 mM EDTA; 0.01% Triton X-100; 1.4 mU ST3GALI; 2.5 mM T-antigen; 1 mM CMP-Neu5Ac and different concentration of Sialyltransferase inhibitors to a total volume of 50 μl. The assay mixture was incubated at 37° C. for 15 mins and then quenched by heating up to 101′C for 10 mins. The sialylated product was resolved by reversed-phase HPLC. Kinetic data were obtained by fitting the initial rate data to the nonlinear regression equation.
as §2, with “mU ST6GALI; 25 μM Galβ1-4GlcNAc;” for “mU ST3GALI; 2.5 mM T-antigen;”, “to 101° C.” for “to 101′C”, “product is” for “product was”, “resolved with” for “resolved by”
(§3) Effects of the present compounds on the activity of sialyltransferase, including α2,3(N)-sialyltransferase ST3GALIII, α2,6(N)-sialyltransferases ST6GALI, and α2,3(O)-sialyltransferase ST3GALI, were determined in accordance with procedures described in the “Materials and Methods” section, and results are summarized in Table 1.

Series [2] concerns the target T2, α2,6(N)-sialyltransferases ST6GALI (Homo sapiens, UniProt P15907).
T2 construct: purchased RnDSystems.com (R&D Systems)
T2 sequence (P15907 1-406): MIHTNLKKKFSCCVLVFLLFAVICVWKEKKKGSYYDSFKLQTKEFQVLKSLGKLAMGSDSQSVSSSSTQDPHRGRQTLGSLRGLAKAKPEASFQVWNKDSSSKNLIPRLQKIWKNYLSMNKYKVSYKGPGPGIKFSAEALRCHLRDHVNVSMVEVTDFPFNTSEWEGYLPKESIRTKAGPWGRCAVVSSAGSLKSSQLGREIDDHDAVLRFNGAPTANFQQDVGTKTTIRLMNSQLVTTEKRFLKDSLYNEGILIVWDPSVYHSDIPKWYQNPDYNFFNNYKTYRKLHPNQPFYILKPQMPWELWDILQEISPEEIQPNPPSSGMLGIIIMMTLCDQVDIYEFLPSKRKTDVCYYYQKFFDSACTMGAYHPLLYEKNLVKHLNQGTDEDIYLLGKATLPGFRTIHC
Put plainly: Sialyltransferase inhibition assay, ST6GALI (reverse-phase HPLC). The format is biochemical. To be noted: for IC50: α2,6-N-link. The procedure:
as §1
as §2, with “mU ST6GALI; 25 μM Galβ1-4GlcNAc;” for “mU ST3GALI; 2.5 mM T-antigen;”, “to 101° C.” for “to 101′C”, “product is” for “product was”, “resolved with” for “resolved by”
as §3

Series [3] has as its target T1, α2,3(N)-sialyltransferase ST3GALIII. Put plainly: Sialyltransferase activity assay, ST3GALIII. The class given is biochemical. The conditions noted are these: α2,3-N-link.
Series [4] deals with T3, α2,3(O)-sialyltransferase ST3GALI (Rattus norvegicus, UniProt Q6H8N0).
T3 construct: purchased Calbiochem
T3 sequence (Q6H8N0 1-340): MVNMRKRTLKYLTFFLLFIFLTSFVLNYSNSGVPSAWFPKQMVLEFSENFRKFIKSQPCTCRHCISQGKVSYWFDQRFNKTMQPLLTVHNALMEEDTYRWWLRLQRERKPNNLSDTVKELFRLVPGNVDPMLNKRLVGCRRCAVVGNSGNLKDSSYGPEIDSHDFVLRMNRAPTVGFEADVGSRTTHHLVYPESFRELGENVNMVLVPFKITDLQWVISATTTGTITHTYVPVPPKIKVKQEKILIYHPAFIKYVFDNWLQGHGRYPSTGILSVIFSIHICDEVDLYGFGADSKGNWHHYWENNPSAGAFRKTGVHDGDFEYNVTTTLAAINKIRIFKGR
Put plainly: Sialyltransferase inhibition assay, ST3GALI (reverse-phase HPLC). The class given is biochemical. To be noted: for inhibition at 500 µM: measured at 500 μM; for inhibition at 500 µM / inhibition at 1000 µM: read-out: ST3GALI inhibition percentage; for inhibition at 1000 µM: measured at 1 mM. The procedure: as §1, §2, §3

For series [5], the system named is MDA-MB-231 cells. As to the kind of experiment: Transwell migration assay, breast cancer cells. The class given is cell-based, human. The text has this:
Migration assays were done using a transwell, in which a polycarbonate filter pre-coated with Matrigel (8-μm pores, Millicell; Millipore, Billerica, Mass.) was inserted therein. […] Cells that had migrated to the underside of the inserted filter were stained with hematoxylin solution. The cells in the upper side of the inserted membrane were rubbed with a cotton swab. The migrated cells on the underside were pictured in a 200× magnification field and quantified.

Regarding `C[C@H](CCC(=O)OCCOCCOCCOCCOCCN=[N+]=[N-])C1CC[C@H]2[C@@H]3CC[C@@H]4C[C@H](OC(=O)[C@H](CC(=O)O)Nc5ccc([N+](=O)[O-])c6nonc56)CC[C@]4(C)[C@H]3CC[C@]12C` (stereo partly drawn) [Compound 5, (3S)-4-(((3R,5R,8R,9S,10S,13R,14S)-17-((R)-1-azido-16-oxo-3,6,9,12,15-pentaoxaicosan-19-yl)-10,13-dimethylhexadecahydro-1H-cyclopenta[a]phenanthren-3-yl)oxy)-3-((7-nitrobenzo[c][1,2,5]oxadiazol-4-yl)amino)-4-oxobutanoic acid], the “selectivity ratio ST3GALI/ST3GALIII” value in series [1] (calculated based on the concentration, 500 μM, of ST inhibitor used toward α2,3-O-ST3GALI) was >516^d. Besides, the “selectivity ratio ST3GALI/ST6GALI” value in series [2] is above 99. Besides, the IC50 in series [2] (IC50 (μM) ST6GALI) came out at 5.03 ± 0.2 µM; in series [3] (IC50 (μM) ST3GALIII), 0.97 ± 0.14 µM. In series [4], the inhibition at 500 µM worked out at 0%.

In the case of `C[C@H](CCC(=O)OCCOCCOCCOCCN=[N+]=[N-])C1CC[C@H]2[C@@H]3CC[C@@H]4C[C@H](OC(=O)[C@H](CC(=O)O)Nc5ccc([N+](=O)[O-])c6nonc56)CC[C@]4(C)[C@H]3CC[C@]12C` (stereo partly drawn) [Compound 4, (3S)-4-(((3R,5R,8R,9S,10S,13R,14S)-17-((R)-1-azido-13-oxo-3,6,9,12-tetraoxaheptadecan-6-yl)-10,13-dimethylhexadecahydro-1H-cyclopenta[a]phenanthren-3-yl)oxy)-3-((7-nitrobenzo[c][1,2,5]oxadiazol-4-yl)amino)-4-oxobutanoic acid], the “migration of MDA-MD-231 cells” value in series [5] (20 μM, FIG. 1) is “inhibited the migration”. The IC50 in series [5] (Homo sapiens, MDA-MB-231, breast cancer cells treated with 2-30 μM, transwell, 16 hours, read-out: IC50 on migration) was determined as 12 ± 0.13 µM; in series [2] (IC50 (μM) ST6GALI), 4.9 ± 0.08 µM; in series [3] (IC50 (μM) ST3GALIII), 1.01 ± 0.07 µM. Also, the “selectivity ratio ST3GALI/ST3GALIII” value in series [1] (calculated based on the concentration, 500 μM, of ST inhibitor used toward α2,3-O-ST3GALI, listed as 4 (FCW66)) was >495^d; in series [1] (calculated based on the concentration, 1 mM, of ST inhibitor used toward α2,3-O-ST3GALI, listed as 4 (FCW66)), “(≤990)^e”. In series [2], the “selectivity ratio ST3GALI/ST6GALI” value was above 102. For the same compound, the inhibition at 500 µM in series [4] came out at 0%. Also, the inhibition at 1000 µM in series [4] is 50%.

`C[C@H](CCC(=O)O)[C@H]1CC[C@H]2[C@@H]3CC[C@@H]4C[C@H](OC(=O)[C@@H](N)CC(=O)O)CC[C@]4(C)[C@H]3CC[C@]12C` [Lith-O-Asp, reference compound]: in series [1] (comparative controls with measured ST3GALI IC50), the “selectivity ratio ST3GALI/ST3GALIII” value is on record as 3. Moreover, the “selectivity ratio ST3GALI/ST6GALI” value in series [2] is 3. Moreover, the figures for the IC50 in series [2] (read-out: IC50 (μM) ST6GALI), in series [3] (read-out: IC50 (μM) ST3GALIII) and in series [4] (α2,3-O-link) were 15.78 ± 0.13 µM, 12 µM and 39 ± 1.26 µM, respectively.

As to `C[C@H](CCC(=O)OCCN=[N+]=[N-])C1CC[C@H]2[C@@H]3CC[C@@H]4C[C@H](OC(=O)[C@H](CC(=O)O)Nc5ccc([N+](=O)[O-])c6nonc56)CC[C@]4(C)[C@H]3CC[C@]12C` (stereo partly drawn) [Compound 1, (3S)-4-(((3R,5R,8R,9S,10S,13R,14S)-17-((R)-5-(2-azidoethoxy)-5-oxopentan-2-yl)-10,13-dimethylhexadecahydro-1H-cyclopenta[a]phenanthren-3-yl)oxy)-3-((7-nitrobenzo[c][1,2,5]oxadiazol-4-yl)amino)-4-oxobutanoic acid], the melting point was 78 to 79 °C. Also, in series [2] (IC50 (μM) ST6GALI), the IC50 is 4.2 µM and 4.33 µM. For the same compound, the IC50 in series [3] (IC50 (μM) ST3GALIII) was 0.8 µM and 0.77 µM. For the same compound, in series [4], the inhibition at 500 µM is 0% and the inhibition at 1000 µM was 74%.
